Source: patent US20220386591A1, “CRYOPRESERVATION COMPOSITIONS AND METHODS INCLUDING GLYCEROL ESTER COMPONENTS” (THE SECANT GROUP LLC, priority 2021, published 2022)

Tested on: Jurkat E6.1 cells (ATCC #TIB-152)
Assay: Post-thaw viability of cells frozen immediately after addition of cryopreservative (trypan blue exclusion)
Format: cell-based
Settings: 10 wt % DMSO, FIG. 1
Description: A glycerol ester component in the form of PGS was added to cell culture media containing Jurkat E6.1 cells (ATCC #TIB-152) at three different concentrations: 250 μg/mL (about 0.025 wt %), 500 μg/mL (about 0.05 wt %), and 1000 μg/mL (about 0.1 wt %). […] Cell culture media containing Jurkat E6.1 cells (ATCC #TIB-152) with no PGS and cell culture media containing Jurkat E6.1 cells (ATCC #TIB-152) with 10% DMSO served as controls. Cells were then immediately frozen at a rate of −1° C./min to −80° C. Once frozen, the cryopreserved cells were transferred to liquid nitrogen vapor phase storage for 72 hours. Following storage in a liquid nitrogen vapor phase, the cells were thawed and their viability was assessed through a trypan blue exclusion assay using a ThermoFisher Countess II FL automated cell counter to determine the percentage of viable cells.

With `C[S+](C)[O-]` [DMSO, dimethyl sulfoxide] as the compound, how does the “cryoprotection of viable cells post-thaw (positive control)” value read?
The value was “provided cryoprotection to essentially all of the viable cells”.
